From US7652003B2, “Macrocyclic β-secretase inhibitors” (Schering-Plough Corporation, priority 2004, dated 2010)
Where two headings read alike, the source gives them in different places.

Molecular target: T1, sproBACE1 (soluble human BACE1) (Homo sapiens, UniProt P56817)
T1 construct: sBACE1, corresponding to amino acids 1-454; made in house; host or cells: Sf9 insect cells (baculovirus); purified from culture supernatant
Assay: Peptide hydrolysis assay (HTRF, EuK-biotin labeled APPsw substrate)
Format: biochemical
Settings: 7 nM sproBACE1, pH 5.0, 3 hr at 30° C.
From the text: A predicted soluble form of human BACE1 (sBACE1, corresponding to amino acids 1-454) was generated from the full length BACE1 cDNA (full length human BACE1 cDNA in pcDNA4/mycHisA construct; University of Toronto) by PCR using the advantage-GC cDNA PCR kit (Clontech, Palo Alto, Calif.). A HindIII/Pmel fragment from pcDNA4-sBACE1 myc/His was blunt ended using Klenow and subcloned into the Stu I site of pFASTBACI(A) (Invitrogen). A sBACE1 mycHis recombinant bacmid was generated by transposition in DH10Bac cells(GIBCO/BRL). Subsequently, the sBACE1 mycHis bacmid construct was transfected into sf9 cells using CellFectin (Invitrogen, San Diego, Calif.) in order to generate recombinant baculovirus. Sf9 cells were grown in SF 900-II medium (Invitrogen) supplemented with 3% heat inactivated FBS and 0.5× penicillin/streptomycin solution (Invitrogen). Five milliliters of high titer plaque purified sBACEmyc/His virus was used to infect 1 L of logarithmically growing sf9 cells for 72 hours. Intact cells were pelleted by centrifugation at 3000×g for 15 minutes. The supernatant, containing secreted sBACE1, was collected and diluted 50% v/v with 100 mM HEPES, pH 8.0. The diluted medium was loaded onto a Q-sepharose column. The Q-sepharose column was washed with Buffer A (20 mM HEPES, pH 8.0, 50 mM NaCl).
Proteins, were eluted from the Q-sepharose column with Buffer B (20 mM HEPES, pH 8.0, 500 mM NaCl). The protein peaks from the Q-sepharose column were pooled and loaded onto a Ni-NTA agarose column. The Ni-NTA column was then washed with Buffer C (20 mM HEPES, pH 8.0, 500 mM NaCl). Bound proteins were then eluted with Buffer D (Buffer C+250 mM imidazole). Peak protein fractions as determined by the Bradford Assay (Biorad, Calif.) were concentrated using a Centricon 30 concentrator (Millipore). sBACE1 purity was estimated to be ˜90% as assessed by SDS-PAGE and Commassie Blue staining.
The inhibitor, 25 nM EuK-biotin labeled APPsw substrate (EuK-KTEEISEVNLDAEFRHDKC-biotin; CIS-Bio International, France), 5 μM unlabeled APPsw peptide (KTEEISEVNLDAEFRHDK; American Peptide Company, Sunnyvale, Calif.), 7 nM sproBACE1, 20 mM PIPES pH 5.0, 0.1% Brij-35 (protein grade, Calbiochem, San Diego, Calif.), and 10% glycerol were preincubated for 30 min at 30° C. […] HTRF measurements were made on a Packard Discovery® HTRF plate reader using 337 nm laser light to excite the sample followed by a 50 μs delay and simultaneous measurements of both 620 nm and 665 nm emissions for 400 μs.
IC50 determinations for inhibitors, (I), were determined by measuring the percent change of the relative fluorescence at 665 nm divided by the relative fluorescence at 620 nm, (665/620 ratio), in the presence of varying concentrations of I and a fixed concentration of enzyme and substrate. […]

[1] = read-out: Activity (IC50 classification)

T1 sequence (P56817 22-454): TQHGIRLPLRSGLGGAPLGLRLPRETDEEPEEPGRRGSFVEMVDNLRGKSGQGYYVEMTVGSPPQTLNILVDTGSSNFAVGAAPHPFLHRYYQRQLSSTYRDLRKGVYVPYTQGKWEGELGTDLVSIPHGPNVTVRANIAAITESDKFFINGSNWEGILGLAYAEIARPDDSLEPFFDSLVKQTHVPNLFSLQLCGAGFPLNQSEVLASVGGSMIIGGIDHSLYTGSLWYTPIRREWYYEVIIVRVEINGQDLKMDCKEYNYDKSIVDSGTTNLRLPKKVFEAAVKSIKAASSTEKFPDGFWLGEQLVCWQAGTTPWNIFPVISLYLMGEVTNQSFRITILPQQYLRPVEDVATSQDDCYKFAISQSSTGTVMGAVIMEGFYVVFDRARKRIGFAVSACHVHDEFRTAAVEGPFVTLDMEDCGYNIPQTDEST

| SMILES | IC50 [1] | also measured |
| --- | --- | --- |
| O=C1N[C@H]([C@H](O)[C@@H]2NCCN(Cc3ccccc3)C2=O)Cc2cc(F)cc(c2)OCCCCN2CC1CC2=O (stereo partly shown) [drawing 69] |  | IC50 (read-out: IC50): 4 nM |
| CCCN1CCCCOc2cc(F)cc(c2)CC(C(O)C2NCCN(Cc3ccccc3)C2=O)NC(=O)c2cccc(c2)C1=O (stereo not shown) |  | Activity (IC50 classification): A or B |
| CCCN1CCCCOc2ccc(cc2)C[C@@H](C(O)C2NCCN(Cc3ccccc3)C2=O)NC(=O)c2cccc(c2)C1=O (stereo partly shown) | 1000 to 10000 nM |  |
| O=C1N[C@H]([C@H](O)[C@@H]2NCCN(Cc3ccccc3)C2=O)Cc2cc(F)cc(c2)OCCCCN2CC1CC2=O (stereo partly shown) [drawing 72] | 2 to 1000 nM |  |
